Test results published in US20100249248A1, “LIGAND AGENTS FOR PEROXISOME PROLIFERATOR-ACTIVATED RECEPTORS (PPARs)” (Suntory Holdings Limited, priority 2007, published 2010).
Where “and” joins values, the source holds several entries; their conditions need not be identical. Equal entries are not always repeated. Values belong to the compound of their own block, whether it stands above or below them.

Columns and labels:
Format in all cases: cell-based
PPARα = molecular target: T1, PPARα (Mus musculus, UniProt P23204); experiment: PPARα ligand activity, GAL4::mPPARα luciferase reporter assay in HepG2 cells; conditions: Table 3; positive control run beside each sample; 25 μM
T1 construct: expressed in transfected cells; host or cells: HepG2 cells (human liver cancer-derived)
T1 sequence (P23204 1-468): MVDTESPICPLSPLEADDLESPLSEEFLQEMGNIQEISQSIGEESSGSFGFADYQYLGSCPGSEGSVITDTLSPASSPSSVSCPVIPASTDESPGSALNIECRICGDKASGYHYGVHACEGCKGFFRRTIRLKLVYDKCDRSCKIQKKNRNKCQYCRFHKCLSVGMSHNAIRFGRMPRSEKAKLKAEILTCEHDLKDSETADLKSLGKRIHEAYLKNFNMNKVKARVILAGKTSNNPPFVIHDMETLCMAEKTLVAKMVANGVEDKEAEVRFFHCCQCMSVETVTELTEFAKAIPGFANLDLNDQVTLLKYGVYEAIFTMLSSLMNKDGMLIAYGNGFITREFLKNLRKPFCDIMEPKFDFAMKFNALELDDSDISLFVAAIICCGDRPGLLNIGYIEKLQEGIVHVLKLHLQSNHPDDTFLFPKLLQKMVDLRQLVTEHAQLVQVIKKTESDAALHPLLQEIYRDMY
Protocol: HepG2 cells (human liver cancer-derived cultured cells) were seeded in 96-well culture plates at 1×10^4 cells/well and cultured at 37° C. under 5% CO2 for 24 hours. The medium used was RPMI1640 (Nissui Pharmaceutical Co., Ltd., Japan) containing 10% FBS (fetal bovine serum; Equitech-Bio) and 0.3 […] Pharmaceutical Co., Ltd., Japan). […] At about 24 hours after transfection, the medium was replaced with another medium containing a plant extract, followed by culturing for 24 hours. As a vehicle control, DMSO was used and added in 1/100 volume to the medium. After washing with phosphate-buffered saline (PBS-), the cells were lysed with a cytolysis solution (Cell Culture Lysis Reagent: Promega) and measured for the luminescence intensity of luciferase with a multilabel counter (Wallac) in the presence of a Luciferase Assay Reagent (Promega). On the other hand, a synthetic PPARδ agonist, L-165041 (Sigma, […]), was used as a positive control. […] On the other hand, a synthetic PPARα agonist, WY-14643 (Sigma, 25 μM), was used as a positive control.

PPARδ = molecular target: T2, PPARδ (Mus musculus, UniProt P35396); experiment: PPARδ ligand activity, GAL4::mPPARδ luciferase reporter assay in HepG2 cells
T2 construct: expressed in transfected cells; host or cells: HepG2 cells (human liver cancer-derived)
T2 sequence (P35396 1-440): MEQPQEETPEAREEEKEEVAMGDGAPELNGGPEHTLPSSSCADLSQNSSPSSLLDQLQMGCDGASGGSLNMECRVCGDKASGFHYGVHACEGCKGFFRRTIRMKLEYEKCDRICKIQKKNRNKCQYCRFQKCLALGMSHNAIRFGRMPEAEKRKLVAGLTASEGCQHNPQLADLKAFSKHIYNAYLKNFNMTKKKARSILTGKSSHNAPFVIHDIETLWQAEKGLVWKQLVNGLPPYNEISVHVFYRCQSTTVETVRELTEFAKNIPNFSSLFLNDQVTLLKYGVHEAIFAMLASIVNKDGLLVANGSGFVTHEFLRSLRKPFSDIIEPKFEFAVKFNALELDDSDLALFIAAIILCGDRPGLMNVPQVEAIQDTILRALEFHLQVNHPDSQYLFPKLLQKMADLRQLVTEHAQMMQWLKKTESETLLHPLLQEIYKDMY
Protocol: HepG2 cells (human liver cancer-derived cultured cells) were seeded in 96-well culture plates at 1×10^4 cells/well and cultured at 37° C. under 5% CO2 for 24 hours. The medium used was RPMI1640 (Nissui Pharmaceutical Co., Ltd., Japan) containing 10% FBS (fetal bovine serum; Equitech-Bio) and 0.3 g/L L-Glutamine (Nissui Pharmaceutical Co., Ltd., Japan). These cells were washed with OPTI-MEM (Gibco) and then transfected with pBIND/GAL4::mPPARδ and pG51uc (Promega). […]
At about 24 hours after transfection, the medium was replaced with another medium containing a plant extract, followed by culturing for 24 hours. […] After washing with phosphate-buffered saline (PBS—), the cells were lysed with a cytolysis solution (Cell Culture Lysis Reagent: Promega) and measured for the luminescence intensity of luciferase with a multilabel counter (Wallac) in the presence of a Luciferase Assay Reagent (Promega). […] For assessment of ligand activity, the ratio of luminescence intensity in a sample to that in the control (vehicle control) was defined as the luminescence ratio of PPARδ ligand activity in the sample, and a sample showing a value of 1.3 or greater was determined as having PPARδ ligand activity.
The ethanol extract of each plant obtained in Sample Preparation Example 2 was measured for its PPARγ ligand activity in the same manner as shown in Example 1. […]

PPARγ = molecular target: T3, PPARγ (Rattus norvegicus, UniProt O88275); experiment: PPARγ ligand activity, PPRE-luciferase reporter in CHO/PPARγ/PPRE cells; conditions: Table 4; positive control run beside each sample; 25 μM
T3 construct: expressed in transfected cells
T3 sequence (O88275 1-505): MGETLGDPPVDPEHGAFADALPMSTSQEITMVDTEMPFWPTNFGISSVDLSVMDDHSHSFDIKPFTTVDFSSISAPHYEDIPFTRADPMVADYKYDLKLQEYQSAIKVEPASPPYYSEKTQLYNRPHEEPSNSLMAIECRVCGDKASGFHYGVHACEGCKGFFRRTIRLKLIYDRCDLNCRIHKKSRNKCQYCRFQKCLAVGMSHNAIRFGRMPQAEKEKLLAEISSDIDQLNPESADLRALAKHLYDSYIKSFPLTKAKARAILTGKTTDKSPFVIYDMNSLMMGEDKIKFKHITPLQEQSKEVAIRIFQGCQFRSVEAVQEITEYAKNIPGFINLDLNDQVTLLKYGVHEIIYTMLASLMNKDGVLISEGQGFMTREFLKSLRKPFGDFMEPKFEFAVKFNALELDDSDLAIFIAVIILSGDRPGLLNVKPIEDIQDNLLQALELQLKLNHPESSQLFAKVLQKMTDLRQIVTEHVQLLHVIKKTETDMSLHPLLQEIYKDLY
Description: CHO cells used for measurement of PPARγ ligand activity were obtained in the following manner.
A PPAR reporter plasmid (pPPRE-Luc) was derived from a reporter plasmid, pGL3 (Promega), which contains the SV40 promoter gene and the firefly luciferase gene by being modified to have 3 copies of a PPAR-responsive sequence (PPRE) upstream of the SV40 promoter gene. A PPARγ expression plasmid (pKD-rPPARγ) was obtained by inserting the rat PPARγ gene into an SV40 promoter-driven expression plasmid for mammalian cells. pPPRE-Luc and pKD-rPPARγ were co-transfected into CHO(dhfr-) cells (dihydrofolate reductase-deficient cell line of Chinese hamster ovary cells) using Lipofectamine (Invitorgen). The cells were cultured in D-MEM medium (GIBCO) almost free from thymidine and containing dialyzed fetal bovine serum (GIBCO) to thereby obtain a stable transformant (CHO/PPARγ/PPRE) retaining pPPRE-Luc and pKD-rPPARγ.
The above cells were seeded in 96-well culture plates at 1×10^4 cells/well and cultured at 37° C. under 5% CO2 for 24 hours. […] After washing with phosphate-buffered saline (PBS-), the cells were lysed with a cytolysis solution (Cell Culture Lysis Reagent: Promega) and measured for the luminescence intensity of luciferase with a multilabel counter (Wallac) in the presence of a Luciferase Assay Reagent (Promega). […]

- Luminescence ratio in WY-14643 (PPARα): 4.2 and 4.4 and 7.6
SMILES: Cc1cccc(Nc2cc(Cl)nc(SCC(=O)O)n2)c1C [WY-14643]

- Luminescence ratio in L-165041 (PPARδ; Table 6, positive control run beside each hot water extract): 4.5 and 3.8 and 6.2 and 5.8
SMILES: CCCc1c(OCCCOc2ccc(OCC(=O)O)cc2)ccc(C(C)=O)c1O [L-165041]
- Luminescence ratio in L-165041 (PPARδ; Table 5, positive control run beside each ethanol extract): 4.5 and 4.9 and 6.1 and 6.2 and 5.2 and 4.8 and 4.7

SMILES: CC1(COc2ccc(CC3SC(=O)NC3=O)cc2)CCCCC1 (stereo not shown) [Ciglitizone]
- Luminescence ratio in Ciglitizone (PPARγ): 2.2 and 2.5 and 2.6 and 2.7 and 3.0 and 2.4
